Source: paper PMC2964311, “The Human Host Defense Peptide LL-37 Interacts with Neisseria meningitidis Capsular Polysaccharides and Inhibits Inflammatory Mediators Release” (PLoS ONE, 2010)
Values after ≈ are worked out from the molar mass of the structure shown. Read-outs that look alike come from different tables or passages of the source. Blank lines part the entries; values can stand above or below the compound they belong to. Residues, ends and D or L forms follow the SMILES beside them. No end group written: not given here. *: point of attachment. Lauroyl = CCCCCCCCCCCC(=O)*

Key:
[1] = system: THP-1 cells; experiment: IL-6 release from THP-1 cells induced with meningococcal CPS pre-incubated with peptide (ELISA); type: cell-based, human; conditions: THP-1 cells, CPS-lpxA 100 µg to 50 ng/ml with 10 µg/ml synthetic analogs; Figure 3B
Procedure: Human THP-1 (macrophage-like cells) and murine RAW 264.7 (TLR4-sufficient), 23ScCr (TLR4-deficient) and HEK-TLR2/6/CD14 stably transfected cell lines were stimulated with meningococcal CPS polymers with or without pre-incubation with LL-37 and its analogs (Table 1). CPS polymers were purified from the LPS-deficient serogroup B Neisseria meningitidis lpxA mutant as well as other meningococcal serogroups A, B, C, W135 and Y. Purified CPS samples were freshly dissolved in pyrogen-free sterile H2O at 1 mg/ml stock concentration and vortexed for 2 min. Working CPS concentrations (ranging from 100 µg/ml to 50 ng/ml) were made in duplicate wells using sterile PBS by serial fold dilutions in the 96-well tissue culture plates (Becton Dickinson, Franklin Lakes, NJ) at 50 µl final volumes. […] Freshly grown THP-1 cells and HEK-TLR2/6 transfected cells as well as murine macrophages, each adjusted to 10^6 cell/ml and 250 µl aliquots were dispensed into each well at final 250×10^3 cell density in the designated 96-well plates. The plates were incubated overnight at 37°C with 5% CO2 and humidity. […]
(§1) The cytokines TNFα, IL-6 and CXCL10 (IP-10), released from THP-1 cells, and IL-8, released from HEK-TLR2 transfected cells stimulated with meningococcal CPS polymers, were quantified by DuoSet ELISA (R&D Systems) as previously described.

[2] = system: THP-1 cells; experiment: TNFα release from THP-1 cells induced with meningococcal CPS pre-incubated with peptide (ELISA); type: cell-based, human
Procedure: Human THP-1 (macrophage-like cells) and murine RAW 264.7 (TLR4-sufficient), 23ScCr (TLR4-deficient) and HEK-TLR2/6/CD14 stably transfected cell lines were stimulated with meningococcal CPS polymers with or without pre-incubation with LL-37 and its analogs (Table 1). CPS polymers were purified from the LPS-deficient serogroup B Neisseria meningitidis lpxA mutant as well as other meningococcal serogroups A, B, C, W135 and Y. Purified CPS samples were freshly dissolved in pyrogen-free sterile H2O at 1 mg/ml stock concentration and vortexed for 2 min. Working CPS concentrations (ranging from 100 µg/ml to 50 ng/ml) were made in duplicate wells using sterile PBS by serial fold dilutions in the 96-well tissue culture plates (Becton Dickinson, Franklin Lakes, NJ) at 50 µl final volumes. […] Freshly grown THP-1 cells and HEK-TLR2/6 transfected cells as well as murine macrophages, each adjusted to 10^6 cell/ml and 250 µl aliquots were dispensed into each well at final 250×10^3 cell density in the designated 96-well plates. The plates were incubated overnight at 37°C with 5% CO2 and humidity. Supernatants from stimulated cells were harvested and stored at −20°C until use.
as §1

[3] = system: N. gonorrhoeae strain FA 19; conditions: for MIC activity against gonococci (in words): N. gonorrhoeae FA19
Procedure: The peptides were dissolved in 0.01 % (v/v) acetic acid and stored at −20°C prior to use. Antibacterial assays were performed as described previously and used N. gonorrhoeae strain FA 19. All assays were performed in triplicate and values are reported as the minimal inhibitory concentration (MIC).

[4] = system: RAW 264.7 macrophages; experiment: Nitric oxide release from RAW 264.7 macrophages induced with meningococcal CPS (Griess method); type: cell-based, murine; conditions: RAW 264, serogroup A CPS (laboratory NMA or vaccine grade MAPS 20 µg/ml) pre-incubated with 4 µg/ml analogs; nitrite after 24 h; Figure S1A, S1B
Procedure: (§2) Human THP-1 (macrophage-like cells) and murine RAW 264.7 (TLR4-sufficient), 23ScCr (TLR4-deficient) and HEK-TLR2/6/CD14 stably transfected cell lines were stimulated with meningococcal CPS polymers with or without pre-incubation with LL-37 and its analogs (Table 1). CPS polymers were purified from the LPS-deficient serogroup B Neisseria meningitidis lpxA mutant as well as other meningococcal serogroups A, B, C, W135 and Y. Purified CPS samples were freshly dissolved in pyrogen-free sterile H2O at 1 mg/ml stock concentration and vortexed for 2 min. Working CPS concentrations (ranging from 100 µg/ml to 50 ng/ml) were made in duplicate wells using sterile PBS by serial fold dilutions in the 96-well tissue culture plates (Becton Dickinson, Franklin Lakes, NJ) at 50 µl final volumes. Cationic peptides (2, 4 or 8 µg/ml) or PBS equivalent volumes were added to designated wells and pre-incubated for 30 min at 37°C. Freshly grown THP-1 cells and HEK-TLR2/6 transfected cells as well as murine macrophages, each adjusted to 10^6 cell/ml and 250 µl aliquots were dispensed into each well at final 250×10^3 cell density in the designated 96-well plates. The plates were incubated overnight at 37°C with 5% CO2 and humidity. Supernatants from stimulated cells were harvested and stored at −20°C until use.
Freshly grown adherent RAW 246.7 or 23ScCr (TLR4-deficient) macrophages were harvested, washed and re-suspended in Dulbecco's complete media, counted and adjusted to 10^6 cell/ml. 250 µl aliquots were then dispensed into each well of a 96-well plate at final 250×10^3 cell density prior to stimulation with purified CPS polymers with or without cationic peptides. The induced RAW 264.7 or 23ScCr macrophages were incubated overnight at 37°C with 5% CO2 and supernatants were harvested and saved. Nitric oxide release was quantified using the Greiss chemical method as previously described.

[5] = system: ScCr (TLR4-deficient) murine macrophages; experiment: Nitric oxide release from 23ScCr (TLR4-deficient) macrophages induced with meningococcal CPS (Griess method); type: cell-based; conditions: ScCr cells, 20 µg/ml CPS of serogroups A, B, C, Y, W135 pre-incubated 30 min with 4 µg/ml LL-37 analogs or 20 µg/ml ampicillin or erythromycin; overnight; Figure 6
Procedure: as §2, with “Freshly grown THP-1 cells and HEK-TLR2/6 transfected cells as well as murine macrophages, each adjusted to 10^6 cell/ml and 250 µl aliquots were dispensed into each well at final 250×10^3 cell density in the designated 96-well plates. The plates were incubated overnight at 37°C with 5% CO2 and humidity. Supernatants from stimulated cells were harvested and stored at −20°C until use.” left out
Freshly grown adherent RAW 246.7 or 23ScCr (TLR4-deficient) macrophages were harvested, washed and re-suspended in Dulbecco's complete media, counted and adjusted to 10^6 cell/ml. […] Nitric oxide release was quantified using the Greiss chemical method as previously described.

[6] = system: purified CPS polymers; experiment: Neutralizing activity against purified CPS polymers (pro-inflammatory capacity of CPS); type: cell-based, Neisseria meningitidis; conditions: compared with LL-37
Procedure: as §2

[7] = system: NFκB; experiment: Inducible NFκB dual luciferase reporter in HEK-TLR2/6 cells stimulated with CPS-lpxA; type: cell-based, human; conditions: CPS-lpxA (20 µg/ml) pre-incubated with analogs (4 µg/ml) 30 min, induction 5 h, firefly normalized to Renilla, Figure 7A
From the text: To determine the signaling pathways induced upon meningococcal CPS recognition, a transcription factors array (Cignal Finder™ 10-Pathway Reporter Arrays, SABiosciences, Fredrick, MD) consisting of 10 dual-luciferase reporters assays were used according to the manufacturer instructions. Each of the 10 reporter assays encodes for an inducible transcription factor responsive firefly luciferase reporter and constitutively expressing Renilla construct in 40∶1 ratio. Briefly, DNA reporter master mixes were prepared in SureFect transfection reagent (SABiosciences) diluted in Opti-MEM media without serum or antibiotics and 25 µl/well were dispensed into 96-well white tissue culture plates. For reverse transfection, freshly grown cells were counted and adjusted to 1×10^6 cells/ml in Opti-MEM without serum or antibiotics. 100 µl of cells (100×10^3 cells/well) were laid over the DNA reporters in 96-well plates and incubated overnight at 37°C with 5% CO2. Transfection media were removed and replaced with 150 µl of fresh D-MEM supplemented with 10% FBS and incubated again overnight at 37°C. Cells were then induced with meningococcal CPS polymers or LOS doses for 5 h and dual-luciferase reporter activity was determined using Dual-Luciferase reporter assay system (Promega Corporation, Madison, WI) following the manufacturer instructions. […]

Compound: CCCCCCCCCCCC(=O)N[C@@H](Cc1ccccc1)C(=O)N[C@@H](CCCCN)C(=O)N[C@@H](CCCNC(=N)N)C(=O)N[C@H](C(=O)N[C@H](C(=O)N[C@@H](CCC(N)=O)C(=O)N[C@@H](CCCNC(=N)N)C(=O)N[C@H](C(=O)N[C@@H](CCCCN)C(=O)N[C@@H](CC(N)=O)C(=O)N[C@@H](Cc1ccccc1)C(=O)N[C@@H](CC(C)C)C(=O)N[C@@H](CCCNC(=N)N)C(=O)N[C@@H](CC(N)=O)C(=O)N[C@@H](CC(C)C)C(=O)N[C@H](C(=O)O)C(C)C)[C@@H](C)CC)C(C)C)[C@@H](C)CC [C12LL-17-32 D/N] (Lauroyl-FKRIVQRIKNFLRNLV-OH; C-terminus assumed)
Inhibition of IL-6 release (interaction with CPS polymers) [1]: enhanced interaction with meningococcal CPS polymers | Inhibition of TNFα release (interaction with CPS polymers) ([2]; THP-1 cells, CPS-lpxA 100 µg to 50 ng/ml with 10 µg/ml synthetic analogs, Figure 3A): enhanced interaction with meningococcal CPS polymers | MIC ([3]; strain FA 19): 3.9 µg/mL (≈ 1.75 µM)

Compound: CC1(C)S[C@@H]2[C@H](NC(=O)[C@H](N)c3ccccc3)C(=O)N2[C@H]1C(=O)O [ampicillin]
Inhibition of CPS polymers (nitric oxide release) [4]: this was not seen | Nitric oxide release induced by various meningococcal CPS [5]: this inhibition was not observed

Compound: CC[C@H]1OC(=O)[C@H](C)[C@@H](O[C@H]2C[C@@](C)(OC)[C@@H](O)[C@H](C)O2)[C@H](C)[C@@H](O[C@@H]2O[C@H](C)C[C@H](N(C)C)[C@H]2O)[C@](C)(O)C[C@@H](C)C(=O)[C@H](C)[C@@H](O)[C@]1(C)O [erythromycin]
Nitric oxide release induced by various meningococcal CPS [5]: this inhibition was not observed

MIC ([3]; strain FA 19): 7.8 µg/mL
Compound: EKIGKEFKRIVQRIKDFLRNLVPRTES [LL-11-37]

MIC ([3]; strain FA 19): 3.9 µg/mL
Compound: FKRIVQRIKDFLRNLV [LL-17-32]

MIC ([3]; strain FA 19): 3.9 µg/mL
Compound: FKRIVQRIKNFLRNLV [LL-17-32 D/N]

Compound: LLGDFFDESEEEIGEEFEDIVQDIEDFLDNLVPDTES [LL-37 R/D-K/E]
MIC ([3]; strain FA 19): >1000 µg/mL

MIC ([3]; strain FA 19): 125 µg/mL
Compound: LLGDFFDKSKEKIGKEFKDIVQDIKDFLDNLVPDTES [LL-37 R/D]

MIC ([3]; strain FA 19): >1000 µg/mL
Compound: LLGDFFRASAEAIGAEFARIVQRIADFLRNLVPRTES [LL-37 K/A]

Compound: LLGDFFRESEEEIGEEFERIVQRIEDFLRNLVPRTES [LL-37 K/E]
Neutralizing activity against purified CPS polymers [6]: reduced neutralizing activity | MIC ([3]; N. gonorrhoeae FA19 (non-encapsulated), assays in triplicate): > 1000 µg/mL

MIC ([3]; strain FA 19): >1000 µg/mL
Compound: LLGDFFRKSKEKIGKEF [LL-1-17]

Compound: LLGKFFKKSKKKIGKKFKKIVQKIKKFLKNLVPKTKS [LL-37 K]
Neutralizing activity against purified CPS polymers [6]: did not enhance the neutralizing activity | MIC activity against gonococci (in words) [3]: retained excellent MIC activity | MIC ([3]; strain FA 19): 7.8 µg/mL

Compound: LLGRFFRRSRRRIGRRFRRIVQRIRRFLRNLVPRTRS [LL-37 R]
Neutralizing activity against purified CPS polymers [6]: did not enhance the neutralizing activity | MIC activity against gonococci (in words) [3]: retained excellent MIC activity | MIC ([3]; strain FA 19): 15.6 µg/mL

Compound: Polymyxin B
Inhibition of CPS polymers (nitric oxide release) [4]: inhibited CPS polymers | TNFα release ([2]; THP-1 cells induced with the CPS-lpxA-analog complexes of the NFκB experiment, Figure 7B): decreased TNFα release | CPS induced NFκB induction (luciferase reporter) [7]: able to inhibit
